# Results: patent US10966940B2, “Methods for the treatment of tinnitus induced by cochlear excitotoxicity” (INSTITUT NATIONAL DE LA SANTE ET DE LA RECHERCHE MEDICALE …, priority 2004, dated 2021)
# What was measured:
# Long-Evans rats = test: Behavioral (active avoidance) model of tinnitus induced by cochlear excitotoxicity provoked by acute acoustic trauma; type: in vivo, rat
# Procedure: We developed and tested an animal model of tinnitus induced by cochlear excitotoxicity, which was provoked by acoustic trauma. […] These considerations mean for example that more animals are required to obtain a sufficient number of tinnitus cases for study and to permit observation of tinnitus over time. As it is unclear whether a case of tinnitus induced by cochlear excitotoxicity is to last or not, it is advisable to conduct studies in its early stages.
# The experiments were performed in two stages. First, the hearing loss following acute acoustic trauma as well as the incidence of tinnitus were evaluated with no therapeutic compound administered.
# During experiments, animals were caged individually at a constant temperature with a day/night cycle of 12/12 hours. All behavioral tests were performed in the dark phase, the usual period of animal activity, for every animal individually at about the same time each day. Outside the experiments, the animals received water and nutrition ad libidum. A total of 60 animals were used: 30 for the first stage (of which 25 were tested by behavioral techniques and 5 by electrophysiology), and 30 for the second stage with 10 for each pharmaceutical compound tested.
# Acoustic trauma was induced by a continuous pure tone of 6 kHz generated by a waveform synthesizer (Hewlett-Packard 8904A). The animals were anesthetized and exposed to 130 dB sound pressure level (SPL) for 20 minutes, which was routed through a programmable attenuator and presented to the ears in free field via a JBL 075 earphone positioned 10 cm in front of the animal's head. Sound level was measured using a calibrated Bruel and Kjaer microphone (4314) and a Bruel and Kjaer calibrating amplifier (2606).
# Behavioral conditioning and testing Animals were conditioned to achieve active avoidance (Guitton et al., J. of Neuroscience 23 (9): 3944-3952 (2003)). Behavioral testing consisted of the performance of a task whenever a sound was produced in a conditioning box with an electrical floor and a climbing pole. […] The unconditional stimulus consisted of an electric shock to the feet of the animals (3.7 mA) during maximally 30 seconds. Interstimulus intervals were 1 second. The electric shocks were stopped by the investigator once the animal correctly climbed onto the pole. Intervals between trials were at least one minute long.
# The score was defined as the animal's performance, measured by the number of cases when it climbed correctly onto the pole in response to the sound. As soon as an animal had reached a score of at least 80% in three consecutive sessions, it was considered successfully conditioned and employed in the experiments.
# Experiments were conducted daily with measurements of both score and false positive responses during one session of 10 minutes with 10 trials in total. False positive responses were climbings onto the pole between trials without any acoustic stimulation, i.e. during periods of silence. They can be interpreted as the perception of tinnitus, as the animals are performing the task of climbing onto the pole as if they were hearing the stimulus (Guitton et al., J. of Neuroscience 23 (9): 3944-3952 (2003)). Sound stimuli were randomized, and electrical footshocks were only delivered if the animals didn't climb onto the pole in response to sound.
# Animals were anaesthetized with a single-dose i.p. injection of 0.3 ml/kg of pentobarbital at 6% (Sanofi) and operated under aseptic conditions right after the first behavioral testing (day 0). The two bullae were opened through a posterior auricular surgical procedure (dorsal approach). After exposure of the two cochleas, gelfoam (Gelita tampon, B. Braun Medical AG) impregnated with 2.5 μl artificial perilymph containing the pharmaceutical compounds was placed on the each of the round windows of the two cochleas. The concentration of all three pharmaceutical compounds used was 50 μM.
# guinea pigs [1] = test: ESA noise trauma model: ensemble spontaneous activity of the cochlear nerve; type: in vivo, guinea pig; details: for regular ESA peak centered at 900 Hz to 1 kHz: treated ear; for ESA spectral peak centered at 200 to 250 Hz (tinnitus): 50 microM in 0.7% hyaluronic acid gel, round window
# Procedure: We developed therefore an animal model with guinea pigs that were exposed to intensive noise, producing acute acoustic trauma, and whose ESA was recorded to control for the absence or presence of tinnitus (“ESA noise trauma model”). The possibility to record tinnitus by electrophysiological tests provides an excellent tool for evaluating the therapeutic benefits of pharmaceutical compounds in suppressing tinnitus. The development of the ESA noise trauma model required extensive experimentation with different noise trauma protocols as well as the development and testing of specific measurement tools for extended observation periods in vivo.
# The experiment was performed in two stages. First, guinea pigs were exposed to intense noise stimulation in order to provoke acute acoustic trauma (day 0). Auditory thresholds and ESA were determined and then followed further by repeated electrophysiological measurements. If persisting tinnitus could still be detected after at least 5 days, an NMDA receptor antagonists (ketamine or 7-CK) was applied in a hyaluronic acid formulation onto the round window membrane of the cochlea. […] After treatment with the NMDA receptor antagonists, electrophysiological measurements of hearing thresholds and ESA continued for at least 10 days. The primary endpoints of the study were to test whether the pharmacological treatment could suppress tinnitus even after its onset, and whether such treatment effect was persisting or not. As a control, contralateral ears were exposed to the same noise exposure and followed by electrophysiology.
# Experiments were performed on adult pigmented guinea pigs (250 to 300 grams at study begin). During experiments, animals were caged individually. Outside the experiments, the animals received water and nutrition ad libidum. […] In two contralateral left ears, tinnitus was observed, so that they could be used as a control group.
# Acoustic trauma was induced by a continuous pure tone of 6 kHz generated by a waveform synthesizer (Hewlett-Packard 8904A). […] Sound level was measured using a calibrated Bruel and Kjaer microphone (4314) and a Bruel and Kjaer calibrating amplifier (2606).
# A teflon-coated platinum electrode implanted onto the round window membranes of both cochleas (with reference electrodes placed in a neck muscle) measured the ESA and the compound action potential of the auditory nerve (CAP). […]
# The ESA was recorded from the platinum wire placed in the round window niche. […]
# The ESA was measured just before acute acoustic trauma and 20 minutes following noise exposure on day 0, and then repeatedly for at least 10 days as described above. […] Subsequently, ESA was measured again on the first day after treatment (T+1) as well as 10 days after treatment (T+10). […]
# guinea pigs [2] = test: CAP audiogram (hearing threshold) in ESA noise trauma model; type: in vivo, guinea pig; details: local administration onto round window membrane
# Procedure: A teflon-coated platinum electrode implanted onto the round window membranes of both cochleas (with reference electrodes placed in a neck muscle) measured the ESA and the compound action potential of the auditory nerve (CAP). The surgery was performed using a posterior auricular surgical procedure (dorsal approach) prior to noise exposure. The reference electrode and the round window electrode were soldered to a plug fixed on the skull using dental cement (Unifast Trad, GC Corporation).
# The CAP was measured concomitantly with ESA measurements using the same electrode. Tone bursts (with a duration of 9 ms and a rise/fall cycle of 1 ms, 10 per second) generated by an arbitrary function generator (LeCroy Corp., model 9100R) were applied to the animal's ear in free filed via a JBL 075 earphone. CAP audiograms were obtained by varying burst levels from 0 to 100 dB SPL in steps of 5 dB at the frequencies 2, 4, 6, 8, 10, 12, 16, 20, and 26 kHz. Auditory nerve responses were amplified (Tektronic TM 503; gain 2000), filtered (3.5 kHz low pass) and averaged on a PC (Dimension Pentium, Dell). CAP amplitudes were measured peak-to-peak between the first negative depression N1 and the subsequent positive wave P1. The CAP threshold was defined as the sound intensity (in dB SPL) needed to elicit a measurable response (greater than 5 μV). […]
# [3] = test system: PCP binding site of the NMDA receptor; details: higher affinity than (R)-ketamine; cited from earlier work
# NMDA receptors = details: local administration; cited from earlier work
# [4] = test system: salicylate-induced tinnitus; details: cited from earlier work; for number of false positives after delivery to the cochleas via the round window membrane: salicylate-treated animals; for false positive responses (jumps in absence of sound) induced by the substance: tinnitus induction
# tinnitus = details: systemic administration; cited from earlier work
# [5] = in vivo; cited from earlier work
# [6] = test system: sensory outer hair cells (OHC) and inner hair cell (IHC) synaptic complex; details: 350 mg/kg i.p. twice a day for 2 days
# Procedure: After decapitation of the rats under deep anaesthesia (pentobarbital 50 mg/kg), the cochleas were removed from the temporal bone and perfused with a fixative solution of 2.5% glutaraldehyde in 0.1 M phosphate-buffered saline (PBS), pH 7.3. They were then processed either for scanning (SEM) or transmission electron (TEM) microscopy. For SEM, the otic capsule was dissected out and the stria vascularis, tectorial, and Reissner's membranes were removed. After rinsing in PBS (pH 7.3) the samples were dehydrated in a graded series of ethanol (30-100%), critical point-dried in CO2, coated with gold palladium, and examined using a Hitachi S4000 microscope. For TEM, the cochleas were postfixed in a 1% aqueous solution of osmium tetroxide for 2 hours, rinsed in phosphate buffer, dehydrated in a graded series of ethanol (30-100%), and embedded in Epon resin. Transverse ultrathin sections of the organ of Corti were taken from the apical half of the cochlea. The sections, mounted on formvar-coated or mesh grids, were stained with uranyl acetate, and lead citrate and examined using a Hitachi 7100 microscope.
# [7] = test system: NR1 subunit of the cochlear NMDA receptor; details: 350 mg/kg i.p. twice over 24 hours; sample after 24 hours
# Procedure: The salicylate dose used is known to induce tinnitus (Guitton et al., J. of Neuroscience 23 (9): 3944-3952 (2003)). Another group of 3 animals served as control and was injected i.p. with a NaCl 0.9% solution of the same volume as salicylate treated animals. Samples were obtained after 24 hours in the salicylate and control groups and 24 hours respectively 5 days post incident for the acoustic trauma group.
# Tissues were harvested in cold PBS and homogenized in sample buffer, and the lysates were centrifuged to remove detergent-insoluble material and separated on a 10% SDS-PAGE in Tris/Tricine. After gel electrophoresis, proteins were transferred electrophoretically to nitrocellulose membranes (PVDF transfer membrane Hybond-P, Amersham Pharmacia Biotech, USA). Blots were first incubated with a primary anti-antibody against the NMDA NR1 receptor subunit (1/1000 dilution; rabbit polyclonal antibody, Chemicon international, USA), and with a primary antibody anti-actin (1/50000 dilution, mouse monoclonal anti-β-actin, Sigma, USA) overnight at 4° C. To verify that the molecular weight of the NR1 subunit is identical in both brain and cochlea, immunoblots from the brain of control animals were performed. […] Image scanning of Western blots was then performed for semi-quantification of expression levels of NR1 and actin proteins using Biorad Fluor-S software (Quantity one).
smiles,measurement,setting,value
"CN[C@@]1(c2ccccc2Cl)CCCCC1=O (stereo in doubt) [S-(+)-Ketamine, 2-(2-chlorophenyl)-2-(methylamino)-cyclohexanone]",number of false positives,"Long-Evans rats; group 1 (no increase), days 0 and 1",0.22±0.22 false positives
same,number of false positives,"Long-Evans rats; group 2 (reversible increase), day 0",0.2±0.2 false positives
same,number of false positives,"Long-Evans rats; group 2 (reversible increase), day 1",5±0.48 false positives
same,"recovery of behavioral score after trauma, in words","Long-Evans rats; local administration to round window membrane, 50 μM",improvement was slower than in untreated animals
same,"effect on tinnitus (false positives), in words","Long-Evans rats; local administration to round window membrane, 50 μM, before acoustic trauma",only cases of transient tinnitus could be observed
same,number of animals with no increase in false positives (group 1),Long-Evans rats; of 10 animals per compound,5
same,"number of animals with only reversible increase in false positives (group 2, transient tinnitus)",Long-Evans rats; of 10 animals per compound,5
same,average score at stabilization,"Long-Evans rats; rat, in vivo",89%±2.3
same,regular ESA peak centered at 900 Hz to 1 kHz,guinea pigs [1]; 10 days after treatment (T+10),fully recovered
same,regular ESA peak centered at 900 Hz to 1 kHz,guinea pigs [1]; day T1 after treatment,"still appeared, yet diminished"
same,ESA spectral peak centered at 200 to 250 Hz (tinnitus),"guinea pigs [1]; day T1 after treatment, given after onset of persisting tinnitus",completely disappeared
same,ESA spectral peak centered at 200 to 250 Hz (tinnitus),guinea pigs [1]; day T10 after treatment,remained absent
same,"permanent threshold shift (PTS, hearing loss) after treatment",guinea pigs [2],not changed
same,affinity relative to (R)-ketamine,[3],3-4 fold
"N[C@H](CCCP(=O)(O)O)C(=O)O [D-AP5, D-2-amino-5-phosphonopentanoic acid]",functional recovery and regrowth of auditory dendrites,NMDA receptors,delayed the functional recovery and the regrowth of auditory dendrites
"C[C@]12N[C@H](Cc3ccccc31)c1ccccc12 [MK-801, dizocilpine]",number of false positives after delivery to the cochleas via the round window membrane,[4],decreased significantly
C1C2CC3CC1CC(C2)C3 [adamantane],tinnitus during treatment,tinnitus,reduction in tinnitus during treatment
CCN(CC)CCn1c(=O)c(Cc2ccc(OC)cc2)nc2ccccc21 [caroverine],"intracochlear concentration, local versus systemic administration",[5],higher intracochlear concentrations
CC1CCCCC1(c1cccs1)N1CCCCC1 (stereo not drawn) [gacyclidine],number of false positives after delivery to the cochleas via the round window membrane,[4],decreased significantly
Cc1cccc(Nc2ccccc2C(=O)O)c1C [mefenamate],false positive responses (jumps in absence of sound) induced by the substance,[4],increased the number of false positive responses
"O=C([O-])c1ccccc1O.[Na+] [salicylate, sodium salicylate]",stereocilia of OHC and IHC,[6]; SEM,intact
same,ultrastructure of the IHC synaptic complex,[6]; TEM,No ultrastructural abnormalities
same,"NR1 NMDA receptor subunit expression, higher than control animals",[7],4%
same,false positive responses (jumps in absence of sound) induced by the substance,[4],significant increase
